Experimental findings from PMC7901654, “Bioisosteric Discovery of NPA101.3, a Second-Generation RET/VEGFR2 Inhibitor Optimized for Single-Agent Polypharmacology” (Journal of Medicinal Chemistry, 2020) are described below.

Common to all, as to assay type: cell-based
Test [1] has as its system NIH3T3 HRAS/G12V cells. Put plainly: Phosphorylation and signalling Western blot in NIH3T3 HRAS/G12V cells. To be noted: up to a dose of 100.0 nM. How it is done: Protein lysates were prepared according to standard procedures. Briefly, cells were lysed in a buffer containing 50 mM N-2-hydroxyethylpiperazine-N′-2-ethanesulfonic acid (HEPES; pH 7.5), 1% (v/v) Triton X-100, 150 mM NaCl, 5 mM EGTA, 50 mM NaF, 20 mM sodium pyrophosphate, 1 mM sodium vanadate, 2 mM phenylmethanesulfonyl fluoride (PMSF), and 1 μg/mL aprotinin. Lysates were clarified by centrifugation at 10000g for 15 min. […] Immune complexes were detected with the enhanced chemiluminescence kit (Amersham Pharmacia Biotech, Little Chalfont, U.K.). Anti-phospho-SHC (#Y317), which recognizes SHC protein when phosphorylated on Y317, was from Upstate Biotechnology Inc. (Lake Placid, NY). Anti-SHC (H-108) was from Santa Cruz Biotechnology (Santa Cruz, CA). Anti-MAPK (9101) and anti-phospho-MAPK (9102), specific for p42/44MAPK (ERK1/2) phosphorylated on Thr202/Tyr204, antibodies were from Cell Signaling Technologies (Danvers, MA). Anti-phospho-VEGFR2/KDR (2478), specific for VEGFR2/KDR phosphorylated on Tyr1175, and anti-VEGFR2/KDR (2479) were from Cell Signaling Technologies. Anti-phospho-p70S6K (9234), specific for p70S6K phosphorylated on Thr389, and anti-p70S6K (2708) were from Cell Signaling Technologies. […]

Test [2] concerns CCDC6-RET, NCOA4-RET, and FGFR1OP-RET. Put plainly: RET phosphorylation Western blot in NIH3T3 cells, rearranged RET. To be noted: 2 h. How it is done:
Fibroblasts transfected with RET/C634R were treated with increasing doses of NPA101.3, ranging from 0.1 to 10.0 nM. RET autophosphorylation was assessed by Western blotting using two different antibodies that can recognize phosphorylated Y905, located in the RET kinase activation loop, or Y1062, a multidocking site involved in RET downstream signaling.[41]
Figure 4 NPA101.3-mediated inhibition of phosphorylation and signaling of oncogenic RET mutants and VEGFR2 in intact cells. Serum-starved RAT1 cells exogenously expressing the (A and B) indicated RET point mutants or (C) NIH3T3 cells exogenously expressing the indicated RET rearranged mutants were treated for 2 h with the indicated concentrations of the compound. Total cell lysates (50 μg) were subjected to immunoblotting with anti-phospho-Y1062 (αp1062) and anti-phospho-Y905 (αp905) RET antibodies. The blots were normalized using the anti-RET (αRET) antibody. (D) HEK293 cells were transiently transfected with human VEGFR2; 36 h after transfection, cells were serum starved for 12 h. The indicated doses of the compound or vehicle (NT) were added for 2 h, and then VEGFA (100 ng/mL) stimulation was applied for 15 min. […]
Protein lysates were prepared according to standard procedures. […] Immune complexes were detected with the enhanced chemiluminescence kit (Amersham Pharmacia Biotech, Little Chalfont, U.K.). […]
Background: Immunoblotting shows a protein as a band on a membrane.

Test [3] has as its system human RET-negative cells. Put plainly: Cell growth curves, human RET-negative cells taken together. The conditions noted are these: read-out: IC50 dose, all human RET-negative cells. How it is done:
The IC50 dose for all human RET-negative cells was >100.0 nM, confirming compound selectivity (Figure S8 and Table S4).
Nthy-ory-3-1 (10000 per well), TPC-1 (10000 per well), MZ-CRC-1 (100000 per well), TT (200000 per well), Lc-2/ad (100000 per well), BCPAP (10000 per well), 8505-C (10000 per well), PC-9 (10000 per well), A549 (10000 per well), CALU-1 (10000 per well), NIH3T3 RET/C634Y (10000 per well), and NIH3T3 HRAS/G12V (10000 per well) were seeded in six-well tissue culture plates. Cells were kept in 2% (TPC-1), 5% (Nthy-ori-3-1), or 10% (BCPAP, 8505-C, CALU-1, A549, PC-9, TT, MZ-CRC-1, and Lc-2/ad) fetal calf serum or in 2% (NIH3T3 RET/C634Y and HRAS/G12V) calf serum. Ba/F3 cells (200000 per well in 2 mL) were seeded in six-well tissue culture plates and kept in 10% fetal calf serum. The day after plating, different concentrations of the drug or vehicle were added to the medium and changed every 2–3 days. Cells were counted every day (Ba/F3), every 2 days (fibroblasts), or every 2–3 days (human cell lines). To compare cell growth, we performed an unpaired Student’s t test using the Instat software program (Graphpad Software Inc.). […] IC50 doses were calculated through a curve fitting analysis from last day of growth curves using the PRISM software program (Graphpad Software Inc.).

Test [4] deals with cells negative for RET oncogenes. Put plainly: Growth inhibition, cells negative for RET oncogenes (summary). The conditions noted are these: doses of ≤100 nM. How it is done: Finally, NPA101.3 featured efficacy already at 1 mg/kg/day in RET-driven tumors in nude mice. […] Therefore, though in a therapeutic setting toxicity may be increased by hitting multiple targets, it is feasible that the activity of the NPA101.3 against RET-driven tumors may take advantage of a synergistic combination of cell autonomous (on tumor cell growth mediated by RET inhibition) and non-cell autonomous (on blood vessel formation mediated by VEGFR2 inhibition) effects, potentiating its effect and reducing the chances of resistance development. Several TKIs with anti-RET activity are available, and some are already registered for the treatment of different types of thyroid cancers. […]
Nthy-ory-3-1 (10000 per well), TPC-1 (10000 per well), MZ-CRC-1 (100000 per well), TT (200000 per well), Lc-2/ad (100000 per well), BCPAP (10000 per well), 8505-C (10000 per well), PC-9 (10000 per well), A549 (10000 per well), CALU-1 (10000 per well), NIH3T3 RET/C634Y (10000 per well), and NIH3T3 HRAS/G12V (10000 per well) were seeded in six-well tissue culture plates. […] Cells were counted every day (Ba/F3), every 2 days (fibroblasts), or every 2–3 days (human cell lines). […] IC50 doses were calculated through a curve fitting analysis from last day of growth curves using the PRISM software program (Graphpad Software Inc.).

Turning to `CC(C)(C)c1cc(NC(=O)Cc2ccc(-n3cnc4cc(-c5ccc(S(C)(=O)=O)cc5)ccc43)cc2)no1` [NPA101.3], the effect on phosphorylation/signalling result in test [1] is “virtually no effect”. Also, the “phosphorylation of rearranged RET oncoproteins” value in test [2] is recorded as “highly sensitive”. In addition, in test [3], the IC50 (in general, the concentration at which inhibition is half-maximal) is above 100 nM. Besides, in test [4], the “growth effect in cells negative for RET oncogenes” value was “no detectable effect”.
